From patent US11028090B2 (Dong Wha Pharm. Co., Ltd., priority 2017, dated 2021)
Where two headings read alike, the source gives them in different places.

Tests used:
[1] = tested on: acute myelogenous leukemia cells (MV-4-11 cells); experiment: Cytotoxicity to acute myelogenous leukemia cells (MV-4-11 cells), CCK-8; details: Homo sapiens, MV4-11, 72 h
[2] = target: BRD4 (BD1+BD2) bromodomain (Homo sapiens (Human), UniProt O60885); experiment: BRD4 binding inhibition (AlphaScreen, GST-BRD4 vs tetraacetylated histone H4 peptide)
In short: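 AlphaScreen read after 30 min dark incubation at room temperature with glutathione acceptor/streptavidin donor beads (10 μg/ml each). The beads were added to compound plus 100 nM biotin-H4 (K5,8,12,16-acetyl) peptide and 100 nM GST-BRD4 BD1+BD2 in pH 7.4 HEPES/Tween/BSA/DTT buffer.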

[3] = read-out: IC50, cytotoxicity against acute myelogenous leukemia cells
[4] = read-out: MV-4-11 Cytotoxicity IC50
[5] = GST-BRD4 (BD1+BD2) / biotinylated acetyl-histone H4 (Lys5,8,12,16) peptide, read-out: IC50, BRD4 binding inhibition
[6] = GST-BRD4 (BD1+BD2) vs biotinylated acetyl-histone H4 peptide, AlphaScreen, read-out: BRD4 IC50

IC50 [2, 5]	IC50 [2, 6]	Compound	IC50 [1, 3]	IC50 [1, 4]
≤ 50 nM	43 nM	COc1ccc2c(c1)nc(NCCCCNC(=O)c1ccccc1F)c1nnc(C)n12 [Example 328, 2-fluoro-N-[4-(7-methoxy-1-methyl-[1,2,4]triazolo[4,3-a]quinoxaline-4-ylamino)-butyl]-benzramide]	≤ 200 nM	190 nM
≤ 50 nM	31 nM	Cc1ccc(NC(=O)c2ccc3c(c2)nc(NCCCCNC(=O)CC(C)C)c2nnc(C)n23)c(N)c1 [Example 216, 1-methyl-4-[4-(3-methyl-butyrylamino)-butylamino]-[1,2,4]triazolo[4,3-a]quinoxaline-7-carboxylic acid-(2-amino-4-methyl-phenyl)-amide]		240 nM
	64 nM	COc1cccc2c1nc(NCCCCNC(=O)OC(C)(C)C)c1nnc(C)n12 [Example 117, [4-(6-methoxy-1-methyl-[1,2,4]triazolo[4,3-a]quinoxaline-4-ylamino)-butyl]-carbamic acid-tert-butylester]		370 nM
≤ 50 nM	18 nM	CCc1nnc2c(NCCCCNC(=O)CC(C)C)nc3cc(OC)c(OC)cc3n12 [Example 597, N-[4-(1-ethyl-7,8-dimethoxy-[1,2,4]triazolo[4,3-a]quinoxaline-4-ylamino)-butyl]-3-methyl-butyramide]		230 nM
	71 nM	Cc1nnc2c(NCCCCNC(=O)CC(C)C)nc3cc(OCc4ccc(C#N)cc4)ccc3n12 [Example 341, N-{4-[7-(4-cyano-benzyloxy)-1-methyl-[1,2,4]triazolo[4,3-a]quinoxaline-4-ylamino]-butyl}-3-methyl-butyramide]	≤ 200 nM	52 nM
≤ 10 nM	7 nM	COCCOc1ccc2c(c1)nc(NCCCCNC(=O)OC1CCCC1)c1nnc(C)n12 [Example 371, {4-[7-(2-methoxy-ethoxy)-1-methyl-[1,2,4]triazolo[4,3-a]quinoxaline-4-ylamino]-butyl}-carbamic acid cyclopentylester]	≤ 200 nM	119 nM
≤ 50 nM	12 nM	Cc1nnc2c(NCCCCNC(=O)CC(C)C)nc3ccc(N)cc3n12 [Example 551, N-[4-(8-amino-1-methyl-[1,2,4]triazolo[4,3-a]quinoxaline-4-ylamino)-butyl]-3-methyl-butyramide]	≤ 200 nM	135 nM
≤ 50 nM	43 nM	Cc1nnc2c(NCCCCNC(=O)CC(C)(C)C)nc3ccc(OC(F)(F)F)cc3n12 [Example 266, 3,3-dimethyl-N-[4-(1-methyl-8-trifluoromethoxy-[1,2,4]triazolo[4,3-a]quinoxaline-4-ylamino)-butyl]-butyramide]		540 nM
	58 nM	COC(=O)c1ccc2c(c1)nc(NCCCCNC(=O)CC(C)C)c1nnc(C)n12 [Example 199, 1-methyl-4-[4-(3-methyl-butyrylamino)-butylamino]-[1,2,4]triazolo[4,3-a]quinoxaline-7-carboxylic acid methylester]	≤ 200 nM	49 nM
≤ 10 nM	7 nM	CCCNc1cc2c(cc1OC)nc(NCCCCNC(=O)CC(C)C)c1nnc(C)n12 [Example 559, N-[4-(7-methoxy-1-methyl-8-propylamino-[1,2,4]triazolo[4,3-a]quinoxaline-4-ylamino)-butyl]-3-methyl-butyramide]	≤ 200 nM	141 nM
≤ 50 nM		CCCOC(=O)N[C@H](C(=O)NCCCCNc1nc2cc(N3C[C@@H](C)O[C@@H](C)C3)ccc2n2c(C)nnc12)C(C)C [Example 516, (S)-(1-{4-[7-(2,6-dimethyl-morpholine-4-yl)-1-methyl-[1,2,4]triazolo[4,3-a]quinoxaline-4-ylamino]-butylcarbamoyl}-2-methyl-propyl)-carbamic acid propylester]		518 nM
	56 nM	CCOC(=O)NCCCCNc1nc2cc(OC)c(OC)cc2n2c(C)nnc12 [Example 61, [4-(7,8-dimethoxy-1-methyl-[1,2,4]triazolo[4,3-a]quinoxaline-4-ylamino)-butyl]-carbamic acid ethylester]		380 nM
≤ 50 nM	14 nM	CCC(CC)C(=O)NCCCCNc1nc2cc(OCCOC)ccc2n2c(C)nnc12 [Example 381, 2-ethyl-N-{4-[7-(2-methoxy-ethoxy)-1-methyl-[1,2,4]triazolo[4,3-a]quinoxaline-4-ylamino]-butyl}-butyramide]	≤ 200 nM	200 nM
≤ 10 nM		Cc1nnc2c(NCCCCNC(=O)OC(C)(C)C)nc3cc(-c4nc5ccccc5n4C)ccc3n12 [Example 220, {4-[1-methyl-7-(1-methyl-1H-benzoimidazole-2-yl)-[1,2,4]triazolo[4,3-a]quinoxaline-4-ylamino]-butyl}-carbamic acid-tert-butylester]		350 nM
≤ 50 nM	15 nM	Cc1nnc2c(NCCCCNC(=O)NC(C)C)nc3cc(-c4nc5ccccc5n4C)ccc3n12 [Example 238, 1-isopropyl-3-{4-[1-methyl-7-(1-methyl-1H-benzoimidazole-2-yl)-[1,2,4]triazolo[4,3-a]quinoxaline-4-ylamino]-butyl}-urea]		650 nM
≤ 10 nM	10 nM	CCC(C)OC(=O)NCCCCNc1nc2cc(OCCOC)ccc2n2c(C)nnc12 (stereo not drawn) [Example 368, {4-[7-(2-methoxy-ethoxy)-1-methyl-[1,2,4]triazolo[4,3-a]quinoxaline-4-ylamino]-butyl}-carbamic acid-sec-butylester]	≤ 200 nM	140 nM
≤ 50 nM	20 nM	COCCOc1ccc2c(c1)nc(NCCCCNC(=O)OCc1ccccc1)c1nnc(C)n12 [Example 373, {4-[7-(2-methoxy-ethoxy)-1-methyl-[1,2,4]triazolo[4,3-a]quinoxaline-4-ylamino]-butyl}-carbamic acid benzylester]		420 nM
	56 nM	Cc1nnc2c(NCCCCNC(=O)CC(C)C)nc3cc(OCCCC#N)ccc3n12 [Example 342, N-{4-[7-(3-cyano-propoxy)-1-methyl-[1,2,4]triazolo[4,3-a]quinoxaline-4-ylamino]-butyl}-3-methyl-butyramide]	≤ 200 nM	28 nM
≤ 50 nM	17 nM	Cc1ccc2[nH]c(-c3ccc4c(c3)nc(NCCCCNC(=O)CC(C)C)c3nnc(C)n34)nc2c1 [Example 223, 3-methyl-N-{4-[1-methyl-7-(5-methyl-1H-benzoimidazole-2-yl)-[1,2,4]triazolo[4,3-a]quinoxaline-4-ylamino]-butyl}-butyramide]	≤ 200 nM	14 nM
≤ 50 nM	11 nM	Cc1nnc2c(NCCCCNC(=O)Cc3cccs3)nc3cc(N4CCOCC4)ccc3n12 [Example 507, N-[4-(1-methyl-7-morpholine-4-yl-[1,2,4]triazolo[4,3-a]quinoxaline-4-ylamino)-butyl]-2-thiophene-2-yl-acetamide]	≤ 200 nM	21 nM
	68 nM	Cc1ccc2[nH]c(-c3ccc4c(c3)nc(NCCCCNC(=O)OC(C)(C)C)c3nnc(C)n34)nc2c1 [Example 219, {4-[1-methyl-7-(5-methyl-1H-benzoimidazole-2-yl)-[1,2,4]triazolo[4,3-a]quinoxaline-4-ylamino]-butyl}-carbamic acid-tert-butylester]	≤ 200 nM	79 nM
≤ 50 nM	18 nM	COc1cc2nc(NCCCCC(=O)NCc3ccco3)c3nnc(C)n3c2cc1OC [Example 650, 5-(7,8-dimethoxy-1-methyl-[1,2,4]triazolo[4,3-a]quinoxaline-4-ylamino)-pentanoic acid-(furan-2-ylmethyl)-amide]		220 nM
≤ 50 nM	16 nM	CCc1nnc2c(NCCCCNC(=O)OCC(C)C)nc3cc(OC)ccc3n12 [Example 624, [4-(7-methoxy-1-ethyl-[l,2,4]triazolo[4,3-a]quinoxaline-4-ylamino)-butyl]-carbamic acid isobutylester]		410 nM
≤ 10 nM	10 nM	COCCOc1ccc2c(c1)nc(NCCCCNC(=O)[C@H](NC(=O)[C@@H](O)C(C)C)C(C)C)c1nnc(C)n12 (stereo in doubt) [Example 403, 2-(S,R)-hydroxy-N-(1-{4-[7-(2-methoxy-ethoxy)-1-methyl-[1,2,4]triazolo[4,3-a]quinoxaline-4-ylamino]-butylcarbamoyl}-2-methyl-propyl)-3-methyl-butyramide]		610 nM
≤ 10 nM	10 nM	Cc1nnc2c(NCCCCNC(=O)CC(C)C)nc3cc(N4CCOCC4)ccc3n12 [Example 499, 3-methyl-N-[4-(1-methyl-7-morpholine-4-yl-[1,2,4]triazolo[4,3-a]quinoxaline-4-ylamino)-butyl]-butyramide]	≤ 200 nM	140 nM
≤ 50 nM	18 nM	COc1ccc2c(c1)nc(NCCCCNC(=O)[C@@H](C(C)C)N(C)C)c1nnc(C)n12 [Example 312, 2-(R)-dimethylamino-N-[4-(7-methoxy-1-methyl-[1,2,4]triazolo[4,3-a]quinoxaline-4-ylamino)-butyl]-3-methyl-butyramide]		510 nM
≤ 50 nM	13 nM	Cc1nnc2c(NCCCCNC(=O)CC(C)C)nc3cc(-n4ccnc4)ccc3n12 [Example 492, N-[4-(7-imidazole-1-yl-1-methyl-[1,2,4]triazolo[4,3-a]quinoxaline-4-ylamino)-butyl]-3-methyl-butyramide]	≤ 200 nM	80 nM
